Patent publication US7465789B2, “Adenosine receptor” (Schering Corporation, priority 2001, dated 2008)

How the values were obtained:
SP166 [1] = biological target: T1, SP166 (Homo sapiens, UniProt Q9BXA5, L244P); assay: FLIPR intracellular Ca++ flux assay in BAF/3 cells stably transfected with SP166; format: cell-based
T1 construct: expressed in transfected cells; host or cells: BAF/3 (murine IL-3 dependent B-cell line), retroviral transduction, G418 selection
T1 sequence (Q9BXA5 1-334 L244P): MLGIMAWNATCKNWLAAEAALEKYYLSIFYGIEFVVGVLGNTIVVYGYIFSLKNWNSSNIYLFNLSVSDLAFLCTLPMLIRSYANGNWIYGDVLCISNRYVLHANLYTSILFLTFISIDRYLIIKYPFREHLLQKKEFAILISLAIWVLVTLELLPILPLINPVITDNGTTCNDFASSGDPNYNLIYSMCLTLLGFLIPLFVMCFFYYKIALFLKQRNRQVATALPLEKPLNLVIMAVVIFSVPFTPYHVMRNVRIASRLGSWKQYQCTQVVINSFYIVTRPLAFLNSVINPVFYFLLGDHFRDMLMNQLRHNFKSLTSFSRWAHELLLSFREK

SP166 [2] = biological target: T1, SP166; assay: Radioligand saturation and competition binding assay with [3H]-NECA on membranes of cells transfected with SP166; conditions: radioligand saturation and competition assays
Description: Membrane preparation: Cells transfected with SP166 as described above were harvested by incubating in 5 mM EDTA/phosphate-buffered saline followed by repeated pipetting. The cells were centrifuged 5 min at 1000×g. The EDTA/PBS was decanted and an equal volume of ice-cold 50 mM Tris-HCl, pH 7.5, was added and cells were broken up with a Polytron (PT10 tip, setting 5, 30 sec). Nuclei and unbroken cells were sedimented at 1000×g for 10 min and then the supernatant was centrifuged at 50,000×g for 10 min. The supernatant was decanted, the pellet was resuspended by Polytron, a sample was taken for protein assay (bicinchoninic acid, Pierce), and the tissue was again centrifuged at 50,000×g. Pellets were stored frozen at […].
Binding assay: For saturation binding, four concentrations of [^3H]-NECA were incubated without and with 10^−5 M adenosine in triplicate with 50 ug of membrane protein in a total volume of 200 μl of 50 mM Tris-HCl, pH 7.5, for 30 min at 30° C. Samples were filtered on GF/B filters and washed thrice with 2 ml of cold Tris buffer. Filters were dried in a microwave oven, impregnated with Meltilex wax scintillant, and counted at 45% efficiency. For competition binding assays, five concentrations of compounds were incubated in triplicate with 18 nM [^3H]NECA and 70 μg of membrane protein under the conditions described above. […]

mock transfected cells = assay: FLIPR intracellular Ca++ flux assay in mock transfected cells

activation of SP166 by adenosine analogs (SP166 [1]) | activation of SP166 (change in intracellular Ca++) (SP166 [1]; naturally occurring nucleotides and nucleosides examined, SP166-transfected BAF/3 cells) | binding to the cloned receptor (SP166 [2]) | Compound | activation by adenosine in mock transfected cells (mock transfected cells)
able to activate | – | – | (R)α-methyladenosine | –
inactive | – | – | (S)α-methyladenosine | –
– | specifically activated | able to bind | Nc1ncnc2c1ncn2[C@@H]1O[C@H](CO)[C@@H](O)[C@H]1O [adenosine] | not observed
able to activate | – | – | Nα-methyladenosine | –
